Laboratory results reported in ChEMBL document CHEMBL1201862, “PubChem BioAssay data set” (2004).
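Protocol summary: plate cells (96-well), add compound at 5 concentrations, incubate 48 h, interpolate endpoints linearly. GI50 marks 50% less growth.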 Active and inactive are the calls of the source. Cut-off read from the data, not from the text of the source: active = GI50 up to about 1.1 µM and inactive = higher.

Key:
Assay in all cases: NCI tumour cell line growth inhibition, 48 h
[1] = tested on: SK-MEL-5
[2] = tested on: OVCAR-8
[3] = tested on: TK-10
[4] = tested on: SNB-75
[5] = tested on: UACC-257
[6] = tested on: 786-0
[7] = tested on: CCRF-CEM
[8] = tested on: EKVX
[9] = tested on: HOP-62
[10] = tested on: A549
[11] = tested on: SK-MEL-28
[12] = tested on: COLO 205
[13] = tested on: OVCAR-4
[14] = tested on: UACC-62
[15] = tested on: HT-29
[16] = tested on: KM12
[17] = tested on: HL-60
[18] = tested on: HOP-92
[19] = tested on: DU-145
[20] = tested on: MDA-MB-435

Row | Structure (SMILES) | GI50 [1] | GI50 [2] | GI50 [3] | GI50 [4] | GI50 [5] | GI50 [6] | GI50 [7] | GI50 [8] | GI50 [9] | GI50 [10] | GI50 [11] | GI50 [12] | GI50 [13] | GI50 [14] | GI50 [15] | GI50 [16] | GI50 [17] | GI50 [18] | GI50 [19] | GI50 [20]
1 | c1ccc(C(c2ccccc2)c2cccnc2)cc1 | 83.8 µM (inactive) | 99.3 µM (inactive) | > 100 µM (inactive) | 69 µM (inactive) | > 100 µM (inactive) | > 100 µM (inactive) | > 100 µM (inactive) | 99.5 µM (inactive) | > 100 µM (inactive) | 88.1 µM (inactive) | > 100 µM (inactive) | > 100 µM (inactive) | > 100 µM (inactive) | > 100 µM (inactive) | > 100 µM (inactive) | > 100 µM (inactive) |  |  |  | 
2 | COc1ccc(O)c(C#N)c1C#N.COc1ccc(OC)c(C#N)c1C#N | > 100 µM (inactive) | > 100 µM (inactive) |  | 45.8 µM (inactive) | > 100 µM (inactive) |  | > 100 µM (inactive) | 23.7 µM (inactive) | > 100 µM (inactive) | > 100 µM (inactive) | > 100 µM (inactive) | > 100 µM (inactive) | > 100 µM (inactive) | > 100 µM (inactive) | > 100 µM (inactive) | > 100 µM (inactive) | > 100 µM (inactive) | > 100 µM (inactive) |  | 
3 | CO/N=C1\CC(NC(=O)C(F)(F)F)c2ccsc21 (configuration not stated) | > 100 µM (inactive) | > 100 µM (inactive) | > 100 µM (inactive) | > 100 µM (inactive) | > 100 µM (inactive) |  | > 100 µM (inactive) | > 100 µM (inactive) | > 100 µM (inactive) | > 100 µM (inactive) | > 100 µM (inactive) | > 100 µM (inactive) | > 100 µM (inactive) | > 100 µM (inactive) | > 100 µM (inactive) |  | > 100 µM (inactive) | > 100 µM (inactive) | > 100 µM (inactive) | > 100 µM (inactive)
4 | CNC(=O)OCc1c(CO)nc(SC)n1C | > 100 µM (inactive) | > 100 µM (inactive) |  | > 100 µM (inactive) | > 100 µM (inactive) |  | > 100 µM (inactive) | > 100 µM (inactive) | > 100 µM (inactive) | > 100 µM (inactive) | > 100 µM (inactive) | > 100 µM (inactive) | > 100 µM (inactive) | > 100 µM (inactive) | > 100 µM (inactive) | > 100 µM (inactive) | > 100 µM (inactive) | > 100 µM (inactive) |  | 
5 | O=C(O)c1ccccc1/N=C/c1ccc(N(CCCl)CCCl)cc1 | > 100 µM (inactive) | > 100 µM (inactive) |  | > 100 µM (inactive) | > 78 µM (inactive) |  | > 80.7 µM (inactive) | 64.1 µM (inactive) | 1.31 µM (inactive) | > 100 µM (inactive) | > 100 µM (inactive) | > 100 µM (inactive) | > 100 µM (inactive) | 5.74 µM (inactive) | > 100 µM (inactive) | > 100 µM (inactive) | 29.4 µM (inactive) | > 100 µM (inactive) |  | 
6 | O=[N+]([O-])c1ccc(-c2ccc([C@H]3CC(c4cc(F)c(Cl)cc4Cl)=NN3)o2)cc1 | 7.83 µM (inactive) | 10.8 µM (inactive) | 31.8 µM (inactive) | 15.1 µM (inactive) | 49.4 µM (inactive) | 23.7 µM (inactive) | 1.06 µM (active) | > 100 µM (inactive) | 17 µM (inactive) |  |  |  | 40.2 µM (inactive) | 21.3 µM (inactive) | 37.4 µM (inactive) | 0.625 µM (active) | 1.06 µM (active) | 26.6 µM (inactive) | 26.9 µM (inactive) | 26.7 µM (inactive)
7 | COc1cc2nc(-c3cccs3)nc(N3CCN(c4ccccc4)CC3)c2cc1OC | > 100 µM (inactive) | > 100 µM (inactive) | > 100 µM (inactive) | > 100 µM (inactive) | > 100 µM (inactive) | > 100 µM (inactive) |  | > 100 µM (inactive) | > 100 µM (inactive) | > 100 µM (inactive) | > 100 µM (inactive) | > 100 µM (inactive) | > 100 µM (inactive) | > 100 µM (inactive) | > 100 µM (inactive) | > 100 µM (inactive) | > 100 µM (inactive) | > 100 µM (inactive) | > 100 µM (inactive) | > 100 µM (inactive)
8 | COc1ccc(C(C#N)NC23CC4CC(CC(C4)C2)C3)cc1OC (configuration not stated) | > 100 µM (inactive) | > 100 µM (inactive) | > 100 µM (inactive) | > 100 µM (inactive) | > 100 µM (inactive) | > 100 µM (inactive) | > 100 µM (inactive) | > 100 µM (inactive) | > 100 µM (inactive) | > 100 µM (inactive) | > 100 µM (inactive) | > 100 µM (inactive) | > 100 µM (inactive) | > 100 µM (inactive) | > 100 µM (inactive) | > 100 µM (inactive) | > 100 µM (inactive) | 96.8 µM (inactive) | > 100 µM (inactive) | > 100 µM (inactive)
9 | Brc1ccc2[nH]c3c(C4=NCCC4)nccc3c2c1 | 8.47 µM (inactive) | 13.5 µM (inactive) |  | 31.3 µM (inactive) | 16.9 µM (inactive) |  | 10.4 µM (inactive) | 13 µM (inactive) | 11.6 µM (inactive) | 16.3 µM (inactive) | 16.4 µM (inactive) | 23.3 µM (inactive) | 17.1 µM (inactive) | 9.73 µM (inactive) | 11.2 µM (inactive) | 41.5 µM (inactive) | 5.79 µM (inactive) | > 26.9 µM (inactive) |  | 
10 | CC[C@H](C)[C@H]1NC(=O)C(C(C)=O)=C1O | 98.9 µM (inactive) | > 100 µM (inactive) | > 100 µM (inactive) | 91.2 µM (inactive) | 51.6 µM (inactive) | 98.6 µM (inactive) | 52.2 µM (inactive) | > 100 µM (inactive) | > 100 µM (inactive) | > 100 µM (inactive) | 64 µM (inactive) | > 100 µM (inactive) | 95.9 µM (inactive) | 97.5 µM (inactive) | > 100 µM (inactive) | 96.4 µM (inactive) | 99.8 µM (inactive) | > 100 µM (inactive) |  | 
11 | O=[N+]([O-])c1ccc(Cc2nc3cc4ccccc4cc3[nH]2)cc1C(F)(F)F | 10.7 µM (inactive) | 19 µM (inactive) | 20.2 µM (inactive) | 14.9 µM (inactive) | 14.1 µM (inactive) | 12.7 µM (inactive) | 24.3 µM (inactive) | 25.8 µM (inactive) | 13.8 µM (inactive) | 13.9 µM (inactive) | 24.2 µM (inactive) | 4.32 µM (inactive) | 17.5 µM (inactive) |  | 14.3 µM (inactive) | 13.4 µM (inactive) | 10 µM (inactive) | 14.9 µM (inactive) | 22.1 µM (inactive) | 6.12 µM (inactive)
12 | CCOC(=O)Cn1c(=O)ccn(COCCO)c1=O | > 100 µM (inactive) | > 100 µM (inactive) | > 100 µM (inactive) | > 100 µM (inactive) | > 100 µM (inactive) |  | > 100 µM (inactive) | > 100 µM (inactive) | > 100 µM (inactive) | > 100 µM (inactive) | > 100 µM (inactive) | > 100 µM (inactive) | > 100 µM (inactive) |  | > 100 µM (inactive) | > 100 µM (inactive) | > 100 µM (inactive) | > 100 µM (inactive) | > 100 µM (inactive) | > 100 µM (inactive)
13 | CCO/C=N\C1=C(C#N)SC2=N/C(=C\c3ccc(OC)cc3)C(=O)N21 | > 100 µM (inactive) | > 100 µM (inactive) | 58.2 µM (inactive) | 19.2 µM (inactive) | > 100 µM (inactive) | 40.6 µM (inactive) | > 100 µM (inactive) | 60.1 µM (inactive) |  | > 100 µM (inactive) | > 100 µM (inactive) | > 100 µM (inactive) | 15.4 µM (inactive) |  | > 100 µM (inactive) | > 100 µM (inactive) | 87.1 µM (inactive) | > 100 µM (inactive) | > 100 µM (inactive) | > 100 µM (inactive)
